Earlier results in patent US20250231185A1, “Coronavirus T Cell Epitopes, Megapools and Uses Thereof” (La Jolla Institute for Immunology, priority 2021, published 2025).
Where two headings read alike, the source gives them in different places.

System: CD8+ T cells
Settings: cited from earlier work
[1] = CD8RE megapool peptides (non-spike SARS-CoV-2 antigens), dominant epitope Yes/No
[2] = T cell subset (CD4 or CD8) recognizing the SARS-CoV-2-derived epitope
[3] = T cell type (CD4 or CD8) recognizing the SARS-CoV-2 epitope
[4] = SARS-CoV-2 Ag S, T cell type recognizing the epitope
[5] = CD8R (D) megapool epitopes, dominant = recognized by 3 or more donors/different studies
[6] = SARS-CoV-2-derived CD8 epitopes, dominant = recognized by 3 or more donors/different studies

Question: With 2911 (SELVIGAVIL) [compound 2911] as the substance, how does the Dominant [1] read?
Answer: Yes (more dominant epitopes are defined by being recognized by 3 or more donors/different studies)

Question: For 2980 (ALLADKFPV) [compound 2980], which Dominant [1] is on record?
Answer: Yes (more dominant epitopes are defined by being recognized by 3 or more donors/different studies)

Question: With 560 (APHGHVMVEL) [compound 560] as the substance, how does the Restriction [2] read?
Answer: CD8

Question: With 1054 (PFMIDVQQW) [compound 1054] as the substance, how does the Restriction [3] read?
Answer: CD8

Question: With 669 (YPQVNGLTSI) [compound 669] as the substance, how does the Restriction [2] read?
Answer: CD8

Question: With 2974 (IVDTVSALV) [compound 2974] as the substance, how does the Dominant [1] read?
Answer: Yes (more dominant epitopes are defined by being recognized by 3 or more donors/different studies)

Question: For 559 (HLKDGTCGL) [compound 559], which Restriction [2] is on record?
Answer: CD8

Question: With 1328 (KFLPFQQFGR) [compound 1328] as the substance, how does the Restriction [4] read?
Answer: CD8

Question: Which Restriction [2] does the source give for 623 (LVSDIDITF) [compound 623] here?
Answer: CD8

Question: With 3046 (QLRARSVSPK) [compound 3046] as the substance, how does the Dominant [1] read?
Answer: Yes (more dominant epitopes are defined by being recognized by 3 or more donors/different studies)

Question: For 962 (YRYNLPTMC) [compound 962], which Restriction [3] is on record?
Answer: CD8

Question: For 1775 (SLRPDTRYVL) [compound 1775], which Dominant [5] is on record?
Answer: Yes (more dominant epitopes are defined by being recognized by 3 or more donors/different studies)

Question: For 1368 (GSFCTQLNR) [compound 1368], which Restriction [4] is on record?
Answer: CD8

Question: Which Restriction [2] does the source give for 585 (DTVIEVQGYK) [compound 585] here?
Answer: CD8

Question: For 923 (VVYRAFDIY) [compound 923], which Restriction [3] is on record?
Answer: CD8

Question: With 927 (NLIDSYFVV) [compound 927] as the substance, how does the Restriction [3] read?
Answer: CD8

Question: With 2945 (FSKQLQQSM) [compound 2945] as the substance, how does the Dominant [1] read?
Answer: Yes (more dominant epitopes are defined by being recognized by 3 or more donors/different studies)

Question: With 581 (APKEIIFL) [compound 581] as the substance, how does the Restriction [2] read?
Answer: CD8

Question: Which Restriction [2] does the source give for 663 (FLGRYMSAL) [compound 663] here?
Answer: CD8

Question: For 1755 (KMQRMLLEK) [compound 1755], which Dominant [5] is on record?
Answer: Yes (more dominant epitopes are defined by being recognized by 3 or more donors/different studies)

Question: With 1765 (YLATALLTL) [compound 1765] as the substance, how does the Dominant [5] read?
Answer: Yes (more dominant epitopes are defined by being recognized by 3 or more donors/different studies)

Question: Which Dominant [5] does the source give for 1791 (NTCDGTTFTY) [compound 1791] here?
Answer: Yes (more dominant epitopes are defined by being recognized by 3 or more donors/different studies)

Question: With 2903 (GTITVEELK) [compound 2903] as the substance, how does the Dominant [1] read?
Answer: Yes (more dominant epitopes are defined by being recognized by 3 or more donors/different studies)

Question: For 599 (VEVQPQLEM) [compound 599], which Restriction [2] is on record?
Answer: CD8

Question: Which Restriction [2] does the source give for 646 (TSNPTTFHL) [compound 646] here?
Answer: CD8

Question: With 1346 (QTNSPRRAR) [compound 1346] as the substance, how does the Restriction [4] read?
Answer: CD8

Question: For 1671 (NRFLYIIKL) [compound 1671], which Dominant [5] is on record?
Answer: Yes (more dominant epitopes are defined by being recognized by 3 or more donors/different studies)

Question: With 666 (MSALNHTKKW) [compound 666] as the substance, how does the Restriction [2] read?
Answer: CD8

Question: With 981 (VENPHLMGWD) [compound 981] as the substance, how does the Restriction [3] read?
Answer: CD8

Question: Which Dominant [1] does the source give for 2918 (KFPRGQGVPI) [compound 2918] here?
Answer: Yes (more dominant epitopes are defined by being recognized by 3 or more donors/different studies)

Question: Which Restriction [3] does the source give for 984 (MLRIMASL) [compound 984] here?
Answer: CD8

Question: Which Restriction [2] does the source give for 561 (VMVELVAEL) [compound 561] here?
Answer: CD8

Question: Which Restriction [3] does the source give for 1098 (WRNTNPIQL) [compound 1098] here?
Answer: CD8

Question: Which Restriction [2] does the source give for 643 (SVYYTSNPTTF) [compound 643] here?
Answer: CD8

Question: Which Dominant [5] does the source give for 1783 (FLNRFTTTL) [compound 1783] here?
Answer: Yes (more dominant epitopes are defined by being recognized by 3 or more donors/different studies)

Question: For 1811 (QLRARSVSPK) [compound 1811], which Dominant [5] is on record?
Answer: Yes (more dominant epitopes are defined by being recognized by 3 or more donors/different studies)

Question: Which IFN-f response (Habel et al., 14 peptides screened, HLA-A*02:01) does the source give for VLNDILSRL [SEQ ID NO: 1508] here?
Answer: less prominently recognized

Question: With 1318 (YQPYRVVVL) [compound 1318] as the substance, how does the Restriction [4] read?
Answer: CD8

Question: With 1692 (NPANNAAIVL) [compound 1692] as the substance, how does the Dominant [5] read?
Answer: Yes (more dominant epitopes are defined by being recognized by 3 or more donors/different studies)

Question: Which Dominant [1] does the source give for 2951 (LLMPILTLT) [compound 2951] here?
Answer: Yes (more dominant epitopes are defined by being recognized by 3 or more donors/different studies)

Question: Which Restriction [2] does the source give for 577 (YEKLKPVL) [compound 577] here?
Answer: CD8

Question: For 655 (MSMTYGQQF) [compound 655], which Restriction [2] is on record?
Answer: CD8

Question: For 2919 (FPRGQGVPI) [compound 2919], which Dominant [1] is on record?
Answer: Yes (more dominant epitopes are defined by being recognized by 3 or more donors/different studies)

Question: With 2906 (NRFLYIIKL) [compound 2906] as the substance, how does the Dominant [1] read?
Answer: Yes (more dominant epitopes are defined by being recognized by 3 or more donors/different studies)

Question: With 1417 (AEIRASANL) [compound 1417] as the substance, how does the Restriction [4] read?
Answer: CD8

Question: Which Restriction [2] does the source give for 548 (LLNKHIDAY) [compound 548] here?
Answer: CD8

Question: Which Restriction [2] does the source give for 563 (HVGEIPVAY) [compound 563] here?
Answer: CD8

Question: Which Restriction [3] does the source give for 958 (AAISDYDYYR) [compound 958] here?
Answer: CD8

Question: Which Dominant [1] does the source give for 3032 (CTDDNALAYY) [compound 3032] here?
Answer: Yes (more dominant epitopes are defined by being recognized by 3 or more donors/different studies)

Question: With 632 (QEILGTVSW) [compound 632] as the substance, how does the Dominant [6] read?
Answer: Yes (more dominant epitopes are defined by being recognized by 3 or more donors/different studies)

Question: What about the Restriction [2] of the same substance?
Answer: CD8

Question: Which Dominant [5] does the source give for 1745 (ALLADKFPV) [compound 1745] here?
Answer: Yes (more dominant epitopes are defined by being recognized by 3 or more donors/different studies)

Question: For 1397 (YENQKLIANQF) [compound 1397], which Restriction [4] is on record?
Answer: CD8

Question: Which Dominant [6] does the source give for 539 (GMSRIGMEV) [compound 539] here?
Answer: Yes (more dominant epitopes are defined by being recognized by 3 or more donors/different studies)

Question: And the Restriction [2]?
Answer: CD8

Question: With 935 (VENPDILRVY) [compound 935] as the substance, how does the Restriction [3] read?
Answer: CD8

Question: With 2959 (DTDFVNEFY) [compound 2959] as the substance, how does the Dominant [1] read?
Answer: Yes (more dominant epitopes are defined by being recognized by 3 or more donors/different studies)

Question: With 602 (TPVVQTIEV) [compound 602] as the substance, how does the Restriction [2] read?
Answer: CD8

Question: Which Restriction [2] does the source give for 537 (SASAFFGMSR) [compound 537] here?
Answer: CD8

Question: With 679 (FTCASEYTGNY) [compound 679] as the substance, how does the Restriction [2] read?
Answer: CD8

Question: For 1030 (APTLVPQEHYV) [compound 1030], which Restriction [3] is on record?
Answer: CD8

Question: What does the source list for 510 (ATEGALNTPKDHI) [compound 510]?
Answer: Dominant [6]: Yes (more dominant epitopes are defined by being recognized by 3 or more donors/different studies); Restriction [2]: CD8

Question: With 1465 (FDEDDSEPVL) [compound 1465] as the substance, how does the Restriction [4] read?
Answer: CD8

Question: Which Dominant [1] does the source give for 3018 (FLNRFTTTL) [compound 3018] here?
Answer: Yes (more dominant epitopes are defined by being recognized by 3 or more donors/different studies)

Question: Which Restriction [4] does the source give for 1395 (FAMQMAYRF) [compound 1395] here?
Answer: CD8

Question: For 1343 (AEHVNNSY) [compound 1343], which Restriction [4] is on record?
Answer: CD8

Question: For 1406 (RLDKVEAEVQI) [compound 1406], which Restriction [4] is on record?
Answer: CD8

Question: With 1333 (TSNQVAVLY) [compound 1333] as the substance, how does the Restriction [4] read?
Answer: CD8

Question: Which Restriction [2] does the source give for 686 (YTTTIKPVTY) [compound 686] here?
Answer: CD8

Question: Which Dominant [1] does the source give for 2960 (FYAYLRKHF) [compound 2960] here?
Answer: Yes (more dominant epitopes are defined by being recognized by 3 or more donors/different studies)

Question: For 2924 (SPRWYFYYL) [compound 2924], which Dominant [1] is on record?
Answer: Yes (more dominant epitopes are defined by being recognized by 3 or more donors/different studies)

Question: Which Restriction [3] does the source give for 916 (YLYFIKGLNNL) [compound 916] here?
Answer: CD8

Question: Which Restriction [3] does the source give for 957 (FAVSKGFFK) [compound 957] here?
Answer: CD8

Question: Which Dominant [5] does the source give for 1788 (SMWALIISV) [compound 1788] here?
Answer: Yes (more dominant epitopes are defined by being recognized by 3 or more donors/different studies)

Question: For 965 (FVVEVVDKY) [compound 965], which Restriction [3] is on record?
Answer: CD8

Question: For 657 (LRVEAFEYY) [compound 657], which Restriction [2] is on record?
Answer: CD8

Question: Which Restriction [3] does the source give for 972 (NVIPTITQM) [compound 972] here?
Answer: CD8

Question: Which Restriction [3] does the source give for 1096 (YVMHANYIF) [compound 1096] here?
Answer: CD8

Question: For 3051 (IQYIDIGNY) [compound 3051], which Dominant [1] is on record?
Answer: Yes (more dominant epitopes are defined by being recognized by 3 or more donors/different studies)

Question: Which Restriction [2] does the source give for 613 (GADPIHSLR) [compound 613] here?
Answer: CD8

Question: For 1403 (SVLNDILSR) [compound 1403], which Restriction [4] is on record?
Answer: CD8

Question: What does the source list for 662 (TTDPSFLGRYM) [compound 662]?
Answer: Dominant [6]: Yes (more dominant epitopes are defined by being recognized by 3 or more donors/different studies); Restriction [2]: CD8

Question: For 1050 (MYKGLPWNV) [compound 1050], which Restriction [3] is on record?
Answer: CD8

Question: Which Restriction [3] does the source give for 949 (SFGPLVRKI) [compound 949] here?
Answer: CD8

Question: For 3033 (YTELEPPCRF) [compound 3033], which Dominant [1] is on record?
Answer: Yes (more dominant epitopes are defined by being recognized by 3 or more donors/different studies)

Question: For 1374 (VFAQVKQIY) [compound 1374], which Restriction [4] is on record?
Answer: CD8

Question: Which Restriction [2] does the source give for 531 (HWPQIAQF) [compound 531] here?
Answer: CD8

Question: Which Dominant [6] does the source give for 583 (VTNNTFTLK) [compound 583] here?
Answer: Yes (more dominant epitopes are defined by being recognized by 3 or more donors/different studies)

Question: And the Restriction [2]?
Answer: CD8

Question: With 1394 (IPFAMQMAY) [compound 1394] as the substance, how does the Restriction [4] read?
Answer: CD8

Question: For 1094 (SSEAFLIGCNY) [compound 1094], which Restriction [3] is on record?
Answer: CD8

Question: Which Dominant [1] does the source give for 2930 (LLLLDRLNQL) [compound 2930] here?
Answer: Yes (more dominant epitopes are defined by being recognized by 3 or more donors/different studies)

Question: With 1071 (SLENVAFNV) [compound 1071] as the substance, how does the Restriction [3] read?
Answer: CD8

Question: Which Restriction [3] does the source give for 968 (KSAGFPFNK) [compound 968] here?
Answer: CD8
